Experimental data from PMC7462607 (eLife, 2020).
“And” between values parts separate entries of the source, which are not always exact repeats. Equal entries are not always repeated. Where two headings read alike, the source gives them in different places.

Assays:
[1] = target: T1, 3xFLAG-CDK12/CCNK and DDB1 (Homo sapiens, UniProt Q9NYV4); assay: Co-immunoprecipitation of CCNK and DDB1 with 3xFLAG-CDK12 complex; assay type: binding; settings: A549 3xFLAG-CDK12 knock-in lysates
T1 construct: A549 3xFLAG-CDK12 knock-in cells were detached from plates by scraping; endogenous in cells; host or cells: A549 3xFLAG-CDK12 knock-in cells (lysate)
Protocol: Anti-FLAG M2 antibody (Sigma-Aldrich, MO, USA F3165) was coupled to magnetic epoxy beads (Beijing Yunci Technology Co., Beijing, China) at the ratio of 10 μg of anti-FLAG antibody/mg of beads in the presence of 1 M ammonium acetate and 0.1 M sodium phosphate, pH 7.4 at 37°C overnight. A549 3xFLAG-CDK12 knock-in cells were detached from plates by scraping, washed in DPBS, and then frozen in liquid nitrogen. Frozen cells were pulverized using a mixer mill MM 400 (Retsch, Haan, Germany) with two rounds of 1 min ball milling at 30 Hz. Per experiment, 25 mg of grinded cell powder was solubilized with 250 µL of IP buffer (50 mM HEPES, pH 7.4, 300 mM NaCl, 0.1% Tween-20) supplemented with 1x cOmplete, Mini, EDTA-free protease inhibitor cocktail (Roche, Bazel, Switzerland). The resulting lysates were centrifuged at 15,000 g for 10 min at 4°C. Clarified lysates were supplemented with HQ461 or DMSO and incubated at 4°C for 30 min. Afterwards, 0.2 mg of anti-FLAG-conjugated magnetic beads were mixed with clarified lysates for 15 min on a rotating platform at 4°C, followed by three washes with IP buffer supplemented with HQ461 or DMSO. Bound proteins were eluted from magnetic beads with 1 mg/ml of 3 × FLAG peptide (Sigma-Aldrich, MO, USA F4799) with agitation at 4°C for 30 min. Eluted proteins were subjected to SDS-PAGE and western blotting with anti-FLAG-HRP, anti-CCNK, and anti-DDB1. […]

CCNK-luc reporter = assay: CCNK-luc degradation assay; assay type: cell-based, Homo sapiens; settings: 8 hr
Protocol: The ORF for CCNK was fused with the firefly luciferase (luc) sequence and inserted into the pCDNA3.1 vector. For setting up cells for co-transfection, 0.6 million 293 T cells were seeded per well in 6-well plates and allowed to attach to plates overnight. These cells were then transfected with 50 ng of pCDNA3.1-3xFLAG-CDK12 kinase domain, 50 ng of pCDNA3.1-CCNK-luc, and 400 ng of the empty pCDNA3.1 vector. Twenty-four hours later, transfected cells were dissociated by trypsin digestion and then plated in 96-well white plates. After overnight attachments, cells were then treated with HQ461 and its analog derivatives for 8 hr followed by measurements of luciferase activity with Bright-Glo luciferase assay system (Promega, Madison, USA). Half maximal CCNK-degradation concentrations (DC50) of HQ461 and its active analogs were interpolated by curve fitting with GraphPad Prism using baseline correction (by normalizing to DMSO control), the asymmetric (five parameter) equation, and least squares fit.

[2] = test system: A549 cells expressing sgRNAs (NTC, DDB1, RBX1, UBE2G1); assay: Cell viability assay, A549 cells expressing non-targeting control or sgRNAs targeting DDB1, RBX1 or UBE2G1; assay type: cell-based, Homo sapiens; settings: for CellTiter-Glo (ATP): raw signal; for IC50: Homo sapiens
Protocol: Seven hundred A549 cells or 1,000 HCT-116 cells in 50 µL of medium were plated per well in 384-well flat clear bottom white polystyrene TC-treated microplates (Corning, Corning, USA). After overnight attachment, cells were dosed with a serial dilution of HQ461 with a D300e digital dispenser (Tecan, Männedorf, Switzerland). Cell survival was measured 72 hr later using CellTiter-Glo luminescent cell viability assay kit (Promega, Madison, USA) following vendor instructions. Luminescence was recorded by EnVison multimode plate reader (PerkinElmer, Waltham, USA). IC50 was determined with GraphPad Prism using baseline correction (by normalizing to DMSO control), the asymmetric (five parameter) equation, and least squares fit.
Two sgRNAs per gene were chosen from the Brunello library for DDB1 (5’-[…]-3’ and 5’-[…]-3’), RBX1 (5’- […]-3’ and 5’-[…]-3’), and UBE2G1 (5’-[…]-3’ and 5’- […]-3’). Annealed sgRNA oligos were cloned into the lentiCRISPR v2 vector. Lentiviral packaging was performed by co-transfecting the resulting plasmids with psPAX2 (Addgene 12260) and pMD2.G (Addgene 12259) into 293 T cells. Media collected from transfected 293 T cells was used to infect A549 cells at MOI ~ 5 for 4 days. The resulting cells were tested for their sensitivity to HQ461 using methods describe in the previous session cell viability assay.

T1 sequence (Q9NYV4 whole entry): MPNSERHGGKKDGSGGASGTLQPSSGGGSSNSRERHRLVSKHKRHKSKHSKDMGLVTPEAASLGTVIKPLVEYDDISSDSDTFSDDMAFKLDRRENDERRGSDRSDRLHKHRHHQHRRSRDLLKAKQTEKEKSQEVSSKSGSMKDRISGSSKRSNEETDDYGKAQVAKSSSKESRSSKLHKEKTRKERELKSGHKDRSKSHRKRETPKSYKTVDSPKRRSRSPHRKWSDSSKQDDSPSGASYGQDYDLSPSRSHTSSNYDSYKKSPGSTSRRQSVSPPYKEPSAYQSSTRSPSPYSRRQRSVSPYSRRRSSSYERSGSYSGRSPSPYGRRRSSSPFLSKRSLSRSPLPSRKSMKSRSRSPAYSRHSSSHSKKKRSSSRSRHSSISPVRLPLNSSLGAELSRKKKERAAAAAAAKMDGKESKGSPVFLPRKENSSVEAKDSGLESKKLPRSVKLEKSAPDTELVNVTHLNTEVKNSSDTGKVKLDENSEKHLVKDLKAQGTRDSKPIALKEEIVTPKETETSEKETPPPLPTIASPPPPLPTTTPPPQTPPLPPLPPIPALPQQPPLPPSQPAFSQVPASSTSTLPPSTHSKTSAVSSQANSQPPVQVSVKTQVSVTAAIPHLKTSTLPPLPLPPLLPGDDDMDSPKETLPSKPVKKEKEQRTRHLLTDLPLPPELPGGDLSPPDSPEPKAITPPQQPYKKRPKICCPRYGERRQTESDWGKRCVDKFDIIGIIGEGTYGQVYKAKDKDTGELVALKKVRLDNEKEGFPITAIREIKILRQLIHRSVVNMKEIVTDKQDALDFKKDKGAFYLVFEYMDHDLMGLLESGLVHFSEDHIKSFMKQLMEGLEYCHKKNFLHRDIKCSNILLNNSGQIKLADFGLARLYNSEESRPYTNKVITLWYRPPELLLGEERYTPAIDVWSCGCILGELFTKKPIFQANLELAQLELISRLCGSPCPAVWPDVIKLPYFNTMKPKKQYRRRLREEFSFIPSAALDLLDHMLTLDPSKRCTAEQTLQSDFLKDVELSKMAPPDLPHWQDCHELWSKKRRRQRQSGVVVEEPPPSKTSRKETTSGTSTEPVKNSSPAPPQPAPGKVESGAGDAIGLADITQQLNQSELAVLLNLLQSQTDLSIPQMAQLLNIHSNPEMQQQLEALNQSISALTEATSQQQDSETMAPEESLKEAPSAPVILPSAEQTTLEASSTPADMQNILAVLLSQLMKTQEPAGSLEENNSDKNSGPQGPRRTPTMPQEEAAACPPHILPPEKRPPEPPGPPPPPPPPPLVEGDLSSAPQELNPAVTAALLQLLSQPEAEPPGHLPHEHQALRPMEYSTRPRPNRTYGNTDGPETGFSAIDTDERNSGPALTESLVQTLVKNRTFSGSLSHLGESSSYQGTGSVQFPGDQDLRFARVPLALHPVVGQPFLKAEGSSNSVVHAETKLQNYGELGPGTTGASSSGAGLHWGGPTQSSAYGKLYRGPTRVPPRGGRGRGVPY
T1 sequence (O75909 whole entry partner): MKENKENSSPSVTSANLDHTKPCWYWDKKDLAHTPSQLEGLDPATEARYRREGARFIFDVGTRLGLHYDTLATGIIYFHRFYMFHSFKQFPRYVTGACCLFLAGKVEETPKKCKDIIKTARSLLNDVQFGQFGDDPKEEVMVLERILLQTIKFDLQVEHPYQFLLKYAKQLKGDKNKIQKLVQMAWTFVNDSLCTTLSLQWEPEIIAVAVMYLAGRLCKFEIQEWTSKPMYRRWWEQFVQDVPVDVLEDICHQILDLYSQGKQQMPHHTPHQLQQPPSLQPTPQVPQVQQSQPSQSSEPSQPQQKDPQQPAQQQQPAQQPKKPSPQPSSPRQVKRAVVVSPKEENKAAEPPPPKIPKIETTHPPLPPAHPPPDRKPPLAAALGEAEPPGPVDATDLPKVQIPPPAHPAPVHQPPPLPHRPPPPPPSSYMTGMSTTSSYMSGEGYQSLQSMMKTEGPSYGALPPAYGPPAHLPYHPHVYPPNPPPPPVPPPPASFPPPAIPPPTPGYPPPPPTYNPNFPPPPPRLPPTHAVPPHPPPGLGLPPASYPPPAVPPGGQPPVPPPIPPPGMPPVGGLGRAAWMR
T1 sequence (Q16531 2-1140 partner limits assumed): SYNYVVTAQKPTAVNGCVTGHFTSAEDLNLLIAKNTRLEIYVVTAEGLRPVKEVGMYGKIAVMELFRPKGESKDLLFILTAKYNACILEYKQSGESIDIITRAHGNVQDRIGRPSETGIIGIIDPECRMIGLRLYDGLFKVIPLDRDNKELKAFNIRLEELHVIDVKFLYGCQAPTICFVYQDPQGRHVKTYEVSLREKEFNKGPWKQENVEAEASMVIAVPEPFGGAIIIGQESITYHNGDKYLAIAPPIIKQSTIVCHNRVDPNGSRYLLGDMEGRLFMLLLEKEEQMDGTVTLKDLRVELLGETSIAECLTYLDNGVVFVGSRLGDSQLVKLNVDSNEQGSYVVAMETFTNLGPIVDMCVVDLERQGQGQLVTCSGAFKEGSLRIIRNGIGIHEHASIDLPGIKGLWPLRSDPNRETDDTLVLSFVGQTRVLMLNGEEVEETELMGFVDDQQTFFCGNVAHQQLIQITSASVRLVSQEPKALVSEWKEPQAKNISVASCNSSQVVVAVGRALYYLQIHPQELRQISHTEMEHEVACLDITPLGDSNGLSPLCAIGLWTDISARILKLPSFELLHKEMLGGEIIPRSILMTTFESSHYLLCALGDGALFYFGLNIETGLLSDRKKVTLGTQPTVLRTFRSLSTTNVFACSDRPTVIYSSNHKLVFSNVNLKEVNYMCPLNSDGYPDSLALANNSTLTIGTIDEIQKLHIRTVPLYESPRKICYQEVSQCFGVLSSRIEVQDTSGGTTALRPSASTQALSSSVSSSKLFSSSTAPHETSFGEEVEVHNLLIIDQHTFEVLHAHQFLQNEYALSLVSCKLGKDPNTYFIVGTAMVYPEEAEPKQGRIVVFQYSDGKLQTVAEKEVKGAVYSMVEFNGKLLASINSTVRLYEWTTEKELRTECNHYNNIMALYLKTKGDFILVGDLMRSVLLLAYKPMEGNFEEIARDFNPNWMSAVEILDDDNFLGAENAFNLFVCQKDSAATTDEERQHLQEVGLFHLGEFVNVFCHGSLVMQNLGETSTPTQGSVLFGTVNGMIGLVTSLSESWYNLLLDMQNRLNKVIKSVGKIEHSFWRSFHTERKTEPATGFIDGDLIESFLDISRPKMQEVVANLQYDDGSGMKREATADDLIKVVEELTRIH

Q: What does the source list for `Cc1cccc(Nc2nc(CC(=O)Nc3ncc(C)s3)cs2)n1` [HQ461, 2-(2-((6-methylpyridin-2-yl)amino)thiazol-4-yl)-N-(5-methylthiazol-2-yl)acetamide]?
A: recruitment of DDB1 to CDK12/CCNK (coimmunoprecipitation) [1]: DDB1 was only detected with the CDK12/CCNK complex isolated from lysates treated with HQ461; Dmax (10 μM), percentage of CCNK degradation relative to DMSO control (CCNK-luc reporter; 10 µM): 86.0%; DC50 (CCNK-luc reporter; 293T, read-out: DC50 (half maximal CCNK-degradation concentration)): 0.132 µM; CellTiter-Glo (ATP) ([2]; A549 sgDDB1-1, HQ461 1.04e-6 M): 266440 and 262730 and 269540; CellTiter-Glo (ATP) ([2]; A549 sgDDB1-1, HQ461 1.84e-6 M): 260200 and 241370 and 247600; CellTiter-Glo (ATP) ([2]; A549 sgDDB1-1, HQ461 5e-5 M): 103060 and 118120 and 131920; CellTiter-Glo (ATP) ([2]; A549 sgDDB1-1, HQ461 1.16E-07 M): 267930 and 251180 and 224010; CellTiter-Glo (ATP) ([2]; A549 sgDDB1-1, HQ461 2.04E-07 M): 317680 and 266950 and 274210; CellTiter-Glo (ATP) ([2]; A549 sgDDB1-1, HQ461 3.52E-07 M): 250370 and 237750 and 246820; CellTiter-Glo (ATP) ([2]; A549 sgDDB1-1, HQ461 6.08E-07 M): 264740 and 257780 and 224550; CellTiter-Glo (ATP) ([2]; A549 sgDDB1-1, HQ461 6.80E-08 M): 250520 and 230710 and 232990; CellTiter-Glo (ATP) ([2]; A549 sgNTC, HQ461 1.04e-6 M): 250120 and 267660 and 292550; CellTiter-Glo (ATP) ([2]; A549 sgNTC, HQ461 1.84e-6 M): 177290 and 247760 and 214770; CellTiter-Glo (ATP) ([2]; A549 sgNTC, HQ461 2.88e-5 M): 34040; CellTiter-Glo (ATP) ([2]; A549 sgNTC, HQ461 5e-5 M): 18410 and 24360 and 23900; CellTiter-Glo (ATP) ([2]; A549 sgNTC, HQ461 1.16E-07 M): 358110 and 293700 and 340660; CellTiter-Glo (ATP) ([2]; A549 sgNTC, HQ461 2.04E-07 M): 291450 and 300990 and 265430; CellTiter-Glo (ATP) ([2]; A549 sgNTC, HQ461 3.52E-07 M): 289350 and 289810 and 317840; CellTiter-Glo (ATP) ([2]; A549 sgNTC, HQ461 6.08E-07 M): 260230 and 280040 and 269860; CellTiter-Glo (ATP) ([2]; A549 sgNTC, HQ461 6.80E-08 M): 322880 and 295000 and 291440; CellTiter-Glo (ATP) ([2]; A549 sgRBX1-1, HQ461 1.04e-6 M): 306380 and 286480 and 313050; CellTiter-Glo (ATP) ([2]; A549 sgRBX1-1, HQ461 1.84e-6 M): 225540 and 237470 and 230500; CellTiter-Glo (ATP) ([2]; A549 sgRBX1-1, HQ461 5e-5 M): 43060 and 31790 and 35930; CellTiter-Glo (ATP) ([2]; A549 sgRBX1-1, HQ461 1.16E-07 M): 288560 and 290760 and 286800; CellTiter-Glo (ATP) ([2]; A549 sgRBX1-1, HQ461 2.04E-07 M): 262410 and 264720 and 241220; CellTiter-Glo (ATP) ([2]; A549 sgRBX1-1, HQ461 3.52E-07 M): 292190 and 292940 and 303380; CellTiter-Glo (ATP) ([2]; A549 sgRBX1-1, HQ461 6.08E-07 M): 295780 and 267950 and 240730; CellTiter-Glo (ATP) ([2]; A549 sgRBX1-1, HQ461 6.80E-08 M): 297310 and 267380 and 272530; CellTiter-Glo (ATP) ([2]; A549 sgUBE2G1-1, HQ461 1.04e-6 M): 312980 and 335750 and 320370; CellTiter-Glo (ATP) ([2]; A549 sgUBE2G1-1, HQ461 1.84e-6 M): 297250 and 326340 and 338010; CellTiter-Glo (ATP) ([2]; A549 sgUBE2G1-1, HQ461 2.88e-5 M): 51820 and 43500 and 48750; CellTiter-Glo (ATP) ([2]; A549 sgUBE2G1-1, HQ461 5e-5 M): 35610 and 27850 and 21460; CellTiter-Glo (ATP) ([2]; A549 sgUBE2G1-1, HQ461 1.16E-07 M): 299870 and 310810 and 340290; CellTiter-Glo (ATP) ([2]; A549 sgUBE2G1-1, HQ461 2.04E-07 M): 303360 and 350750 and 286460; CellTiter-Glo (ATP) ([2]; A549 sgUBE2G1-1, HQ461 3.52E-07 M): 341410 and 309550 and 308880; CellTiter-Glo (ATP) ([2]; A549 sgUBE2G1-1, HQ461 6.08E-07 M): 297850 and 310080 and 327760; CellTiter-Glo (ATP) ([2]; A549 sgUBE2G1-1, HQ461 6.80E-08 M): 296160 and 325630 and 360740; IC50 ([2]; A549, independent second sgRNA, Figure 1-figure supplement 2D, read-out: IC50 on the viability of A549 cells expressing sgRNA targeting DDB1): > 28.8 µM; IC50 ([2]; A549, independent second sgRNA, Figure 1-figure supplement 2D, read-out: IC50 on the viability of A549 cells expressing sgRNA targeting RBX1): 11 µM; IC50 ([2]; A549, independent second sgRNA, Figure 1-figure supplement 2D, read-out: IC50 on the viability of A549 cells expressing sgRNA targeting UBE2G1): 13.6 µM; IC50 ([2]; A549, sgDDB1, Figure 1D, read-out: IC50 on the viability of A549 cells expressing sgRNA targeting DDB1): > 28.8 µM; IC50 ([2]; A549, sgNTC, Figure 1D, read-out: IC50 on the viability of A549 cells expressing non-targeting control (NTC)): 2.3 µM; IC50 ([2]; A549, sgRBX1, Figure 1D, read-out: IC50 on the viability of A549 cells expressing sgRNA targeting RBX1): 10.9 µM; IC50 ([2]; A549, sgUBE2G1, Figure 1D, read-out: IC50 on the viability of A549 cells expressing sgRNA targeting UBE2G1): 11.9 µM
